These results are taken from article PMC12592502, “Unraveling the mechanisms behind the enhanced efficacy of β-lactam-based sideromycins” (Communications Biology, 2025).

Data set [1] has as its system E. coli BW25113. Briefly: MIC, parental strain of Keio mutants. Format: cell-based, Escherichia coli. The procedure: All bacterial strains (see description and sources Table S1) were stored at −80 °C, and grown on tryptone soya agar (TSA) at 35 °C. The iron-deprived (ID)-MHBCA (cation-adjusted Muller-Hinton Broth, Becton Dickinson, Mississauga, ON, Canada) medium was prepared as reported by refs. [21],[50]. Briefly, MHBCA was treated with 10% Chelex® 50-100 mesh (Sigma) and stirred for 6 h at room temperature. The resin was removed by filtration. Divalent Ca^2+ (CaCl2), Mg^2+ (MgCl2), and Zn^2+(ZnSO4), were then added in the iron-depleted medium at 22, 12, and 1 μg/ml respectively. Finally, the pH was adjusted to 7.3, and the medium was sterilized with a 0.2-μm filter. Regular MHBCA (i.e., not treated with Chelex®) was used to compare the inhibitory activity of conjugates in iron-sufficient conditions.
Minimal inhibitory concentrations (MICs) were performed using a broth microdilution technique according to the Clinical and Laboratory Standards Institute (CLSI) guidelines. MICs were determined in MHBCA and in ID-MHBCA. To check the impact of β-lactamases, MICs in the presence of a β-lactamase inhibitor were also determined. The inhibitor was homogenized at 2X the final concentration and added to the bacterial inoculum just before distributing cells into the wells containing the drug dilutions. The final concentration of each inhibitor was 4 μg/mL for clavulanic acid (tested against K. pneumoniae) and 200 μg/mL for 3-aminophenylboronic acid (tested against P. aeruginosa and A. baumannii).

Data set [2] in a line: Antibiotic stability in 4-h bacterial culture supernatant. To be noted: for additional decrease of residual concentration in used supernatants versus medium: 4-h supernatants with and without iron, after 3 h; for percentage of antibiotic degradation in [bacterial supernatant]: 3 h. Format: physicochemical.
Procedure: For analysis, the determined concentration in the supernatant was adjusted for the degradation of the molecules measured in the stability control tests for each time point. The final net antibiotic concentration in the medium was calculated at each time point by adding the concentration caused by degradation to the concentration of the test antibiotic measured in the assay tubes containing bacteria. […] A second control was added for the β-lactam LOR and CEF to verify the impact of metabolic waste on the stability of the molecules. The supernatant from the 4-h growth control without antibiotic was collected by filtration 0.2 µm. LOR and CEF were then added to the filtrated supernatant at 200 µM, and degradation was measured after 3 h.
The target of data set [3] is SHV-1 (Klebsiella pneumoniae, UniProt P0AD64). Nature of the data set: biochemical. The procedure:
Enzyme concentrations were 20 nM for AmpC and SHV-1, and 50 nM for OXA-98. Quartz cuvette (FireflySci Inc., Northport, NY) with 1 cm length path and 2 mm inside width was used with an Ultrospec 2100 Pro (Biochrom, Harvard Bioscience Inc., USA) to acquire the kinetic measures. […] The following extinction coefficients (Δε) and wavelengths (λ) were used:
The steady-state parameters (Km and Kcat) were determined by plotting the initial velocity against substrate concentrations (Michaelis–Menten curve). The Kcat was measured using the Vmax (μM/sec) divided by the total enzyme concentration and the catalytic efficiency was further calculated (Kcat/Km). SHV-1 parameters were determined with three Michaelis–Menten curves of at least seven substrate concentrations, while OXA-98 and AmpC were duplicates of curves of at least seven substrate concentrations. […] Initial velocities were measured at room temperature (25 °C). The Vmax and Km were calculated using least squares fit regression in GraphPad version 10.2.2. Ki was measured using a derivative of IC50 with an adaptation of the Cheng–Prusoff equation[55]. […] The corrected Ki was calculated using this formula: Kicorrected=Ki(observed)/1+S/KmNCF

Data set [4] concerns the target PBP5 (Pseudomonas aeruginosa, UniProt G3XD74). Briefly: Membrane PBP binding assay, competition with Bocillin FL. To be noted: P. aeruginosa ATCC 27853 membranes. Summed up:
(§1)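 IC50 from band fluorescence (473 nm excitation, SDS-PAGE) by linear regression, at least two independent runs. Membrane PBP preparations, 25–40 μg per point, were exposed to test antibiotic 10 min at 30 °C before a 20 min, 30 °C chase with Bocillin FL at 12.5 μM.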

For data set [5], the target named is PBP1b (Acinetobacter baumannii, UniProt A0ABX6CHI7). Described as above. To be noted: A. baumannii ATCC 19606 membranes. Summed up:
as §1

Data set [6] deals with PBP4 (Klebsiella pneumoniae, UniProt A0ACD7U7I2). Described as above. To be noted: K. pneumoniae ATCC 13883 membranes. In short, it runs like this:
as §1

In data set [7] the target is PBP1a (Acinetobacter baumannii, UniProt A0ABX6CK30). The data set is described as above. Conditions: A. baumannii ATCC 19606 membranes. In short, it runs like this:
as §1

Data set [8] has as its target PBP1b (Pseudomonas aeruginosa, UniProt G3XD31). Described as above. Conditions: P. aeruginosa ATCC 27853 membranes. In short, it runs like this:
as §1

Data set [9] has as its target PBP3 (Acinetobacter baumannii, UniProt A0ABX6CK25). Described as above. Conditions: A. baumannii ATCC 19606 membranes. Summed up: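 Membrane extracts (25 to 40 μg) preincubated with increasing antibiotic concentrations 10 min at 30 °C, then labelled with 12.5 μM Bocillin FL for 20 min at 30 °C. PBPs resolved by SDS-PAGE, fluorescence band volumes quantified; IC50 by linear regression from at least two independent assays.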

For data set [10], the target named is PBP3 (Klebsiella pneumoniae, UniProt A0A0H3GN85). The description is as above. To be noted: K. pneumoniae ATCC 13883 membranes. In short, it runs like this: as §1
PBP3 (Klebsiella pneumoniae, UniProt A0A0H3GN85), sequence (A0A0H3GN85 entry or part of it): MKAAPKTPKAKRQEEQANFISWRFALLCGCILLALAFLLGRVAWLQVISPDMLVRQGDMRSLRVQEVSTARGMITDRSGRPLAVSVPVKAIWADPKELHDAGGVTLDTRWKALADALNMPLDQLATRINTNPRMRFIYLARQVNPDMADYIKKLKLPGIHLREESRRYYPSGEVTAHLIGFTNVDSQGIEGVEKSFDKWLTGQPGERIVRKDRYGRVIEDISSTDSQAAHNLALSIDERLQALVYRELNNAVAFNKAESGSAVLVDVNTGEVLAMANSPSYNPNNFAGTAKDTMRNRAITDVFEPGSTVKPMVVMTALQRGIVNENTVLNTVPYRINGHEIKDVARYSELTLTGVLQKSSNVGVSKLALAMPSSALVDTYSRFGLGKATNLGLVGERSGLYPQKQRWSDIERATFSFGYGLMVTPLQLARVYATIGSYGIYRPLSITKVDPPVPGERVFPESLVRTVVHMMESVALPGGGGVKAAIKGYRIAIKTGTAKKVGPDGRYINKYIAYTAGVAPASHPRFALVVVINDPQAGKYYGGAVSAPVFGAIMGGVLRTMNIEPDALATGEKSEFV
[11] abbreviates: Escherichia coli, BW25113, BW25113, ID-MHBCA.
[12] abbreviates: Escherichia coli, BW25113, BW25113, MHBCA.
Where [13] appears, read: supernatant of 4-hour culture in ID-MHBCA.

Values after ≈ are worked out from the molar mass of the structure shown.

SHV-1, sequence (P0AD64 23-286): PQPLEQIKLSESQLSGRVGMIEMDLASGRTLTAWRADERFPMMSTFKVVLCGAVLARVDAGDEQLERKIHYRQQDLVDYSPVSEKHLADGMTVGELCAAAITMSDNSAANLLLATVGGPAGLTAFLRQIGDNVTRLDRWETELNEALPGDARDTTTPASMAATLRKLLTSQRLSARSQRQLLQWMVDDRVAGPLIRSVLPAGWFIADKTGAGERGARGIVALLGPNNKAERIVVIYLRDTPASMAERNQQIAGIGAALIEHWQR
PBP1a, sequence (A0ABX6CK30 entry or part of it): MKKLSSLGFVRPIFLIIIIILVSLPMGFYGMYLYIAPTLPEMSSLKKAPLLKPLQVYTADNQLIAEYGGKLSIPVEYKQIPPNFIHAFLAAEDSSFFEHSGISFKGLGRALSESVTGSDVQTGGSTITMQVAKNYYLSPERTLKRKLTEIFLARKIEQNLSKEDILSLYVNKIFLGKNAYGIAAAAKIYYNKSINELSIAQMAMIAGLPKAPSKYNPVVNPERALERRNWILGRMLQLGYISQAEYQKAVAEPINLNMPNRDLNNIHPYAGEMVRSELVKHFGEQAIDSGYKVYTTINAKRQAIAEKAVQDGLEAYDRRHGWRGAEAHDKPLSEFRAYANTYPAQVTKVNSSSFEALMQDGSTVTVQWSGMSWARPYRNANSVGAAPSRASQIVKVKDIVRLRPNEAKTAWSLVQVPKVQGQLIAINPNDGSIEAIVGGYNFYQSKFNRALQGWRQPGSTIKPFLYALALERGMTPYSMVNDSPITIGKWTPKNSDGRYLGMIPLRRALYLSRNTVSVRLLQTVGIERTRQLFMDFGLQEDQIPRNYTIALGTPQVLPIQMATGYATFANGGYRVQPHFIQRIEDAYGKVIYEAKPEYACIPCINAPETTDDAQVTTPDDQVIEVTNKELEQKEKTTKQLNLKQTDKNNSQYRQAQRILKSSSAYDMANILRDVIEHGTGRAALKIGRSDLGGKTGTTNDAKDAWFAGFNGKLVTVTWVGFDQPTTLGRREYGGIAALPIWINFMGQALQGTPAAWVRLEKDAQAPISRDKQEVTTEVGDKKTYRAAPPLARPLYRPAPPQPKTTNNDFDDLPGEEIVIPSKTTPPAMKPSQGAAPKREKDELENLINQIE
PBP5, sequence (G3XD74 entry or part of it): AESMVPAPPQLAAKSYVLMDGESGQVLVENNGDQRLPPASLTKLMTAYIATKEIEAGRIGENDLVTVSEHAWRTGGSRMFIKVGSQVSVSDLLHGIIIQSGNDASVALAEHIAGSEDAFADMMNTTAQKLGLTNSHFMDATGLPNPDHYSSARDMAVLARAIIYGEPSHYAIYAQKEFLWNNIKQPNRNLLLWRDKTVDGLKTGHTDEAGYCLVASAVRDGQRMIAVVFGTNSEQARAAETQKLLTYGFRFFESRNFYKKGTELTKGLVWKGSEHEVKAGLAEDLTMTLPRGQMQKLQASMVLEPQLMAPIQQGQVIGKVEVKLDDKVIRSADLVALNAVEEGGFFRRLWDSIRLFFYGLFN
PBP3 (Acinetobacter baumannii, UniProt A0ABX6CK25), sequence (A0ABX6CK25 1-610): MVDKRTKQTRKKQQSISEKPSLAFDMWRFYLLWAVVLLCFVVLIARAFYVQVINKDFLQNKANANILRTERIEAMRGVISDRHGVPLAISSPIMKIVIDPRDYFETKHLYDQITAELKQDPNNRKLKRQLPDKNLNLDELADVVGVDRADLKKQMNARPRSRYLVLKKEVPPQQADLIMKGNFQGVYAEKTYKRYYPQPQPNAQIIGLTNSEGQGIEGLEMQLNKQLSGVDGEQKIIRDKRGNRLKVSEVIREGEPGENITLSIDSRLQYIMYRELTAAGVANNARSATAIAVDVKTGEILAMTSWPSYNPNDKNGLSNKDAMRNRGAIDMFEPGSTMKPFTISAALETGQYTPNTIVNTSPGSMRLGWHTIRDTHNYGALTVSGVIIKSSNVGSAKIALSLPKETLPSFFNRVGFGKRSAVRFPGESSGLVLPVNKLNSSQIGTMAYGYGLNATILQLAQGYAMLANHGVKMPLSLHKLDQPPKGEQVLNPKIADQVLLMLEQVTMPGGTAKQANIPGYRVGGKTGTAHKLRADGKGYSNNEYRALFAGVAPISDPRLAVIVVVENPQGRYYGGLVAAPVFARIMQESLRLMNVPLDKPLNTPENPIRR
PBP1b (Pseudomonas aeruginosa, UniProt G3XD31), sequence (G3XD31 entry or part of it): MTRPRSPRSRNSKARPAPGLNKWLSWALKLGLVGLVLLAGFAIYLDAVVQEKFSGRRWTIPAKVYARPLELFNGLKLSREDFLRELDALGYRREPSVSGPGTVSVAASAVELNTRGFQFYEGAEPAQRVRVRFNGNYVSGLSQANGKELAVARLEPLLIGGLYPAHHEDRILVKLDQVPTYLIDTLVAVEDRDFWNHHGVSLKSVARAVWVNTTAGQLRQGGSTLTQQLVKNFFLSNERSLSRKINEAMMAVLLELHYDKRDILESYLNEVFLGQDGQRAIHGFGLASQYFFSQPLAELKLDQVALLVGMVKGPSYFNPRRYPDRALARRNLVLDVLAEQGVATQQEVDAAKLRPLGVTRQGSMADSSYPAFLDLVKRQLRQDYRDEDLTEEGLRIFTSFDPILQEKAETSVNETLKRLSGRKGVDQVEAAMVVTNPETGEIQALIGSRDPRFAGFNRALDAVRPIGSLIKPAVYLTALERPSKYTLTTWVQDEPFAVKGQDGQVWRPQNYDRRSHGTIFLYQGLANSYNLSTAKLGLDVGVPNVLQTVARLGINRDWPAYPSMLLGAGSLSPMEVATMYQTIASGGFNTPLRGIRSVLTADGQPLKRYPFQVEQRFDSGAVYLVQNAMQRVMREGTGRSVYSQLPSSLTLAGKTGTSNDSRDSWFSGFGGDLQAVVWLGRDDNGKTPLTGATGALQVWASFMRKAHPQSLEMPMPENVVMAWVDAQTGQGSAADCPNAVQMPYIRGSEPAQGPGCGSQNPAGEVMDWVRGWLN

On to `O=C(CCC(=O)N(CCCCNC(=O)c1cccc(O)c1O)CCCNC(=O)c1cccc(O)c1O)NCCCCCN(O)C(=O)CCCC(=O)NC(C(=O)NC1C(=O)N2C(C(=O)O)=C(Cl)CSC12)c1ccccc1` (centres unmarked) [MCEF, mixed ligand bis-catechol-mono-hydroxamate-cefaclor], for which the MIC was >200 µM in data set [1] (BW25113, ID-MHBCA); > 200 µM in data set [1] (setting [11]); 13 µM (≈ 14.1 µg/mL) in data set [1] (setting [12]).

Consider `N[C@@H](C(=O)N[C@@H]1C(=O)N2C(C(=O)O)=C(Cl)CS[C@H]12)c1ccccc1` [CEF, cefaclor, reference compound], for which, in [2], the “additional decrease of residual concentration in used supernatants versus medium” value is recorded as ≤ 12%. Moreover, the “percentage of antibiotic degradation in [bacterial supernatant]” value in [2] (setting [13]) came to 32%; in data set [2] (supernatant of 4-hour culture in MHBCA), 36%. Further, the MIC in [1] (setting [11]) and in data set [1] (setting [12]) was 6.3 µM (≈ 2.32 µg/mL) each time.

Take `O=C(CN(CCCCNC(=O)c1cccc(O)c1O)C(=O)c1cccc(O)c1O)NC(C(=O)NC1C(=O)N2C(C(=O)O)=C(Cl)CCC12)c1ccccc1` (centres unmarked) [BLOR, bis-catechol (azotochelin)-loracarbef]: the figures for the MIC in data set [1] (setting [11]) and in data set [1] (setting [12]) were 0.006 µM (≈ 0.0045 µg/mL) and 0.012 µM (≈ 0.009 µg/mL), respectively.

Take `N[C@@H](C(=O)N[C@@H]1C(=O)N2C(C(=O)O)=C(Cl)CC[C@H]12)c1ccccc1` [LOR, loracarbef, reference compound]: the “additional decrease of residual concentration in used supernatants versus medium” value in data set [2] is ≤ 12%. In addition, the “percentage of antibiotic degradation in [bacterial supernatant]” value in data set [2] (setting [13]) turned out to be 11%. For the same compound, the “SHV-1 Kcat” value in data set [3] (n = 3) worked out at 7.4 ± 0.5 s⁻¹. For the same compound, the Km in data set [3] (read-out: SHV-1 Km, Michaelis–Menten curves, n = 3, 25 °C) came to 29 ± 9 µM. For the same compound, the IC50 in [4] is > 50 µM; in data set [5], > 50 µM; in [6], 1.03 ± 0.72 µM; in data set [7], > 50 µM; in data set [8] it was 1.8 ± 0.5 µM; in data set [9], 7.8 ± 0.8 µM. The compound further had an IC50 in [10] of 4.1 ± 2.4 µM. The MIC in [1] (BW25113, ID-MHBCA) was determined as 6.3 µM (≈ 2.2 µg/mL); in [1] (BW25113, MHBCA) it was 6.3 µM (≈ 2.2 µg/mL).

In data set [3], `CC1(C)SC2C(NC(=O)C(NC(=O)CN(CCCCNC(=O)c3cccc(O)c3O)C(=O)c3cccc(O)c3O)c3ccccc3)C(=O)N2C1C(=O)O` (centres unmarked) [BAMP, bis-catechol (azotochelin)-ampicillin] gave a Ki of 184 ± 14 µM. The MIC in data set [1] (setting [11]) came to 0.024 µM (≈ 0.018 µg/mL); in data set [1] (setting [12]), 0.05 µM (≈ 0.0375 µg/mL).

As a reminder, the MIC is the least concentration at which growth counts as inhibited. Broadly, the Km is the substrate concentration at which the rate is half of its maximum. Broadly, the IC50 is the concentration that inhibits the measured activity by half. A word on the Ki: it is the dissociation constant of the complex between target and ligand, obtained from inhibition or displacement. High values mean lower affinity, low ones higher affinity.
